Among the data in ChEMBL document CHEMBL1124687, “Analogues of atriopeptin(103-125)amide having high binding selectivity” (J Med Chem, 1989) are Relative potency and Ratio values, retold here.

Assay [1] addresses T1, Atrial natriuretic peptide receptor 3 (Homo sapiens) (UniProt P17342).
T1 sequence (whole entry): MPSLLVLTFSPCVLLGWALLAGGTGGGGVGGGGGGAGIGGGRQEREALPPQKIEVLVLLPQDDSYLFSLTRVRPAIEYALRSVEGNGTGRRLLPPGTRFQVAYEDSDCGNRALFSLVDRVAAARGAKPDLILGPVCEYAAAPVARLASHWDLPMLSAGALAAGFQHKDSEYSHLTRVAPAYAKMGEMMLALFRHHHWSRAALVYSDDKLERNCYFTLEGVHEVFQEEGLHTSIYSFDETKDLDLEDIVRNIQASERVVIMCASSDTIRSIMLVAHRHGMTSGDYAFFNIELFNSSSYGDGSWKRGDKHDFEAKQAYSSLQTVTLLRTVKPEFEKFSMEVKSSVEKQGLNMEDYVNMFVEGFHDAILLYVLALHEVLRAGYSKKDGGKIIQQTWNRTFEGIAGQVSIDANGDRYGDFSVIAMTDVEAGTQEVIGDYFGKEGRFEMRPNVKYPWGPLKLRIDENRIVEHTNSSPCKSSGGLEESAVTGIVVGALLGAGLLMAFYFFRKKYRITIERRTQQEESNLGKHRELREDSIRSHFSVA
Description: Binding affinity for non-vasorelaxant receptor by competitive displacement of [125I]-AP(103-126) from rabbit lung membranes. In kind it is tissue-based. As to conditions: Oryctolagus cuniculus, Membrane, target entry is the homologue from another species. (In a radioligand displacement assay an active substance lowers the binding of a labelled ligand.)

For assay [2], the target named is Atrial natriuretic peptide receptor (Homo sapiens) (UniProt P20594+P16066+P17342). The assay can be described thus: Selectivity factor, ratio of NVR and VR relative binding potency. It is filed as protein assay. As to conditions: Oryctolagus cuniculus.
For another assay, the species on record is Oryctolagus cuniculus. The assay can be described thus: Binding affinity for vasorelaxant receptor by competitive displacement of [125I]-AP(103-126) from rabbit lung membranes. Conditions: Membrane. It is filed as tissue-based.

Each structure is given as a SMILES string. Positions of bridges follow the written chain, without caps; N, C: chain ends. Non-standard residues stand in square brackets, D forms with d. Residues, ends and D or L forms follow the SMILES beside them. ξ: configuration not given here. Nva = CCC[C@H](N)C(=O)O; Abu = CC[C@H](N)C(=O)O; ξA = CC(N)C(=O)O

On to `CC[C@H](C)[C@@H]1NC(=O)[C@H](CCCN=C(N)N)NC(=O)CNC(=O)CNC(=O)[C@H](Cc2ccccc2)NC(=O)[C@H](CO)NC(=O)[C@@H](NC(=O)[C@@H](N)CO)CSSC[C@@H](C(=O)N[C@@H](CO)C(=O)N[C@@H](Cc2ccccc2)C(=O)N[C@@H](CCCN=C(N)N)C(N)=O)NC(=O)[C@H](CO)NC(=O)CNC(=O)[C@H](CC(C)C)NC(=O)CNC(=O)[C@H](CO)NC(=O)[C@H](CCC(N)=O)NC(=O)[C@H](C)NC(=O)CNC(=O)[C@H]([C@@H](C)CC)NC(=O)[C@@H](CCCN=C(N)N)NC(=O)[C@H](CC(=O)O)NC1=O`, for which the Relative potency in assay [1] amounted to 2; in the assay listed under Oryctolagus cuniculus, 0.005. For the same molecule, the Ratio in assay [2] amounted to 400.

With `CC[C@H](C)[C@@H]1NC(=O)[C@H](CCCN=C(N)N)NC(=O)[C@H](CC(=O)O)NC(=O)[C@H]([C@@H](C)CC)NC(=O)[C@H](CCCN=C(N)N)NC(=O)CNC(=O)CNC(=O)[C@H](Cc2ccccc2)NC(=O)CNC(=O)[C@@H](NC(=O)[C@@H](N)CO)CSSC[C@H](C(=O)N[C@@H](CC(N)=O)C(=O)N[C@@H](CO)C(=O)N[C@@H](Cc2ccccc2)C(=O)N[C@@H](CCCN=C(N)N)C(N)=O)NC(=O)CNC(=O)[C@H](CC(C)C)NC(=O)CNC(=O)[C@H](CO)NC(=O)[C@H](CCC(N)=O)NC(=O)[C@H](C)NC(=O)CNC1=O`, the Relative potency was determined as 1.8 in assay [1] and 0.056 in the assay listed under Oryctolagus cuniculus. For the same molecule, the Ratio in assay [2] was determined as 32.

Consider `CC[C@H](C)[C@@H]1NC(=O)[C@H](CCCN=C(N)N)NC(=O)[C@H](CC(=O)O)NC(=O)[C@H]([C@@H](C)CC)NC(=O)[C@H](CCCN=C(N)N)NC(=O)CNC(=O)CNC(=O)[C@H](Cc2ccccc2)NC(=O)[C@H](NC(=O)[C@H](CO)NC(=O)[C@@H](N)CO)CSSC[C@@H](C(=O)N[C@@H](CO)C(=O)N[C@@H](Cc2ccccc2)C(=O)N[C@@H](CCCN=C(N)N)C(N)=O)NC(=O)[C@H](CSC)NC(=O)CNC(=O)[C@H](CC(C)C)NC(=O)CNC(=O)[C@H](CO)NC(=O)[C@H](CCC(N)=O)NC(=O)[C@H](C)NC(=O)CNC1=O`, for which the Relative potency was found to be 3.1 in assay [1] and 0.1 in the assay listed under Oryctolagus cuniculus. Also, the Ratio in assay [2] turned out to be 31.

Consider `CC[C@H](C)[C@@H]1NC(=O)[C@H](CCCN=C(N)N)NC(=O)[C@H](CC(=O)O)NC(=O)[C@H]([C@@H](C)CC)NC(=O)[C@H](CCCN=C(N)N)NC(=O)CNC(=O)CNC(=O)[C@H](Cc2ccccc2)NC(=O)[C@H](CSC)NC(=O)[C@@H](NC(=O)[C@@H](N)CO)CSSC[C@@H](C(=O)N[C@@H](CC(N)=O)C(=O)N[C@@H](CO)C(=O)N[C@@H](Cc2ccccc2)C(=O)N[C@@H](CCCN=C(N)N)C(N)=O)NC(=O)CNC(=O)[C@H](CC(C)C)NC(=O)CNC(=O)[C@H](CO)NC(=O)[C@H](CCC(N)=O)NC(=O)[C@H](C)NC(=O)CNC1=O` (H-SCC(Me)FGGRIDRIGAQSGLGCNSFR-NH2; disulfide 2-19), for which the Relative potency in assay [1] turned out to be 6.6; in the assay listed under Oryctolagus cuniculus it was 0.28. Also, the Ratio in assay [2] stood at 24.

Turning to `CC[C@H](C)[C@@H]1NC(=O)[C@H](CCCN=C(N)N)NC(=O)[C@H](CC(=O)O)NC(=O)[C@H]([C@@H](C)CC)NC(=O)[C@H](CCCN=C(N)N)NC(=O)CNC(=O)CNC(=O)[C@H](Cc2ccccc2)NC(=O)CNC(=O)[C@@H](NC(=O)[C@@H](N)CO)CSSC[C@@H](C(=O)N[C@@H](CO)C(=O)N[C@@H](Cc2ccccc2)C(=O)N[C@@H](CCCN=C(N)N)C(N)=O)NC(=O)CNC(=O)CNC(=O)[C@H](CC(C)C)NC(=O)CNC(=O)[C@H](CO)NC(=O)[C@H](CCC(N)=O)NC(=O)[C@H](C)NC(=O)CNC1=O` (H-SCGFGGRIDRIGAQSGLGGCSFR-NH2; disulfide 2-20), the values for the Relative potency (in assay [1]; in the assay filed under Oryctolagus cuniculus) were 1.5 and 0.0069, respectively. The Ratio in assay [2] came to 217.

Consider `CC[C@H](C)[C@@H]1NC(=O)[C@H](CCCN=C(N)N)NC(=O)[C@H](CC(=O)O)NC(=O)[C@H]([C@@H](C)CC)NC(=O)[C@H](CCCN=C(N)N)NC(=O)CNC(=O)CNC(=O)[C@H](Cc2ccccc2)NC(=O)[C@H](CO)NC(=O)[C@@H](NC(=O)[C@@H](N)CO)CSSC[C@@H](C(=O)N[C@@H](CC(N)=O)C(=O)N[C@@H](CO)C(=O)N[C@@H](Cc2ccccc2)C(=O)N[C@@H](CCCN=C(N)N)C(N)=O)NC(=O)CNC(=O)[C@H](CC(C)C)NC(=O)CNC(=O)[C@H](CO)NC(=O)[C@H](CCC(N)=O)NC(=O)[C@H](C)NC(=O)CNC1=O` (H-SCSFGGRIDRIGAQSGLGCNSFR-NH2; disulfide 2-19), for which the Relative potency in assay [1] was determined as 3.8; in the assay filed under Oryctolagus cuniculus it was 0.24. The Ratio in assay [2] was 16.

Consider `CC[C@@H]1NC(=O)[C@@H](NC(=O)[C@@H](N)CO)CSSC[C@@H](C(=O)N[C@@H](CC(N)=O)C(=O)N[C@@H](CO)C(=O)N[C@@H](Cc2ccccc2)C(=O)N[C@@H](CCCN=C(N)N)C(N)=O)NC(=O)CNC(=O)[C@H](CC(C)C)NC(=O)CNC(=O)[C@H](CO)NC(=O)[C@H](CCC(N)=O)NC(=O)[C@H](C)NC(=O)CNC(=O)[C@H]([C@@H](C)CC)NC(=O)[C@H](CCCN=C(N)N)NC(=O)[C@H](CC(=O)O)NC(=O)[C@H]([C@@H](C)CC)NC(=O)[C@H](CCCN=C(N)N)NC(=O)CNC(=O)CNC(=O)[C@H](Cc2ccccc2)NC1=O` (H-SC[Abu]FGGRIDRIGAQSGLGCNSFR-NH2; disulfide 2-19), for which the values for the Relative potency (in assay [1]; in the assay listed under Oryctolagus cuniculus) were 2.1 and 0.053, respectively. Further, in assay [2], the Ratio worked out at 40.

For `CCC[C@@H]1NC(=O)[C@@H](NC(=O)[C@@H](N)CO)CSSC[C@@H](C(=O)N[C@@H](CC(N)=O)C(=O)N[C@@H](CO)C(=O)N[C@@H](Cc2ccccc2)C(=O)N[C@@H](CCCN=C(N)N)C(N)=O)NC(=O)CNC(=O)[C@H](CC(C)C)NC(=O)CNC(=O)[C@H](CO)NC(=O)[C@H](CCC(N)=O)NC(=O)[C@H](C)NC(=O)CNC(=O)[C@H]([C@@H](C)CC)NC(=O)[C@H](CCCN=C(N)N)NC(=O)[C@H](CC(=O)O)NC(=O)[C@H]([C@@H](C)CC)NC(=O)[C@H](CCCN=C(N)N)NC(=O)CNC(=O)CNC(=O)[C@H](Cc2ccccc2)NC1=O` (H-SC[Nva]FGGRIDRIGAQSGLGCNSFR-NH2; disulfide 2-19), the Relative potency in assay [1] is 0.75; in the assay filed under Oryctolagus cuniculus it was 0.0084. For the same molecule, the Ratio in assay [2] turned out to be 89.

Regarding `CCC[C@@H]1NC(=O)CNC(=O)[C@H](CC(C)C)NC(=O)CNC(=O)[C@H](CO)NC(=O)[C@H](CCC(N)=O)NC(=O)[C@H](C)NC(=O)CNC(=O)[C@H]([C@@H](C)CC)NC(=O)[C@H](CCCN=C(N)N)NC(=O)[C@H](CC(=O)O)NC(=O)[C@H]([C@@H](C)CC)NC(=O)[C@H](CCCN=C(N)N)NC(=O)CNC(=O)CNC(=O)[C@H](Cc2ccccc2)NC(=O)[C@H](CCC)NC(=O)[C@@H](NC(=O)[C@@H](N)CO)CSSC[C@@H](C(=O)N[C@@H](CO)C(=O)N[C@@H](Cc2ccccc2)C(=O)N[C@@H](CCCN=C(N)N)C(N)=O)NC1=O` (H-SC[Nva]FGGRIDRIGAQSGLG[Nva]CSFR-NH2; disulfide 2-20), the figures for the Relative potency (in assay [1]; in the assay listed under Oryctolagus cuniculus) were 0.47 and 0.001, respectively. Moreover, the Ratio in assay [2] came to 470.

For the molecule `CC[C@H](C)[C@@H]1NC(=O)[C@H](CCCN=C(N)N)NC(=O)[C@H](CC(=O)O)NC(=O)[C@H]([C@@H](C)CC)NC(=O)[C@H](CCCN=C(N)N)NC(=O)CNC(=O)CNC(=O)[C@H](Cc2ccccc2)NC(=O)C(C)NC(=O)[C@@H](NC(=O)[C@@H](N)CO)CSSC[C@@H](C(=O)N[C@@H](CC(N)=O)C(=O)N[C@@H](CO)C(=O)N[C@@H](Cc2ccccc2)C(=O)N[C@@H](CCCN=C(N)N)C(N)=O)NC(=O)CNC(=O)[C@H](CC(C)C)NC(=O)CNC(=O)[C@H](CO)NC(=O)[C@H](CCC(N)=O)NC(=O)[C@H](C)NC(=O)CNC1=O` (some centres undefined) (H-SC[ξA]FGGRIDRIGAQSGLGCNSFR-NH2; disulfide 2-19), the Relative potency stood at 2.2 in assay [1] and 0.088 in the assay listed under Oryctolagus cuniculus. For the same molecule, in assay [2], the Ratio was determined as 25.

For `CC[C@H](C)[C@@H]1NC(=O)[C@H](CCCN=C(N)N)NC(=O)[C@H](CC(=O)O)NC(=O)[C@H]([C@@H](C)CC)NC(=O)[C@H](CCCN=C(N)N)NC(=O)CNC(=O)CNC(=O)[C@H](Cc2ccccc2)NC(=O)[C@@H](NC(=O)[C@H](CO)NC(=O)[C@@H](N)CO)CSSC[C@@H](C(=O)NCC(=O)N[C@@H](CC(N)=O)C(=O)N[C@@H](CO)C(=O)N[C@@H](Cc2ccccc2)C(=O)N[C@@H](CCCN=C(N)N)C(N)=O)NC(=O)[C@H](CC(C)C)NC(=O)CNC(=O)[C@H](CO)NC(=O)[C@H](CCC(N)=O)NC(=O)[C@H](C)NC(=O)CNC1=O` (H-SSCFGGRIDRIGAQSGLCGNSFR-NH2; disulfide 3-18), in assay [1], the Relative potency was determined as 0.91. Moreover, the Ratio in assay [2] came to 1.

For `CC[C@H](C)[C@@H]1NC(=O)[C@H](CCCN=C(N)N)NC(=O)[C@H](CC(=O)O)NC(=O)[C@H]([C@@H](C)CC)NC(=O)[C@H](CCCN=C(N)N)NC(=O)CNC(=O)CNC(=O)[C@H](Cc2ccccc2)NC(=O)[C@@H](NC(=O)[C@H](CO)NC(=O)[C@@H](N)CO)CSSC[C@@H](C(=O)N[C@@H](CC(N)=O)C(=O)N[C@@H](CO)C(=O)N[C@@H](Cc2ccccc2)C(=O)N[C@@H](CCCN=C(N)N)C(N)=O)NC(=O)CNC(=O)[C@H](CC(C)C)NC(=O)CNC(=O)[C@H](CO)NC(=O)[C@H](CCC(N)=O)NC(=O)[C@H](C)NC(=O)CNC1=O` (H-SSCFGGRIDRIGAQSGLGCNSFR-NH2; disulfide 3-19), the Relative potency in assay [1] worked out at 1. For the same molecule, the Ratio in assay [2] was determined as 1.
